In patent publication US12677832B2, “Oxadiazole compounds for controlling or preventing phytopathogenic fungi” (PI INDUSTRIES LTD., priority 2019, dated 2026):

What was measured:
Pyricularia oryzae = test: microbe, parasite or virus in culture; assay type: cell-based; settings: 168 h, read-out: control
Alternaria solani = Alternaria solani (Early Blight of Tomato/Potato) radial growth on potato dextrose agar; assay type: cell-based; settings: 168 h, radial growth after seven days compared to untreated control
Colletotrichum capsici = Colletotrichum capsici (Anthracnose) radial growth on potato dextrose agar; assay type: cell-based; settings: Colletotrichum truncatum, 168 h, radial growth after seven days compared to untreated control
Phakopsora pachyrhizi = Phakopsora pachyrhizi Test in Soybean (preventive spray); assay type: in vivo; settings: preventive spray on Soybean plants, inoculated one day after treatment, disease severity vs untreated control
Experimental: Example 7: Phakopsora pachyrhizi Test in Soybean Compounds were dissolved in 2% dimethyl sulfoxide/acetone and then mixed with water containing an emulsifier to a calibrated spray volume of 50 mL. This 50 mL spray solution was poured into spray bottles for further applications. To test the preventive activity of compounds, healthy young Soybean plants, raised in the greenhouse, were sprayed with the active compound preparation at the stated application rates inside the spray cabinets using hollow cone nozzles. One day after treatment, the plants were inoculated with a spore suspension containing 2×10^5Phakopsora pachyrhizi conidia. The inoculated plants were then kept in a greenhouse chamber at 22-24° C. temperature and 80-90% relative humidity for disease expression. A visual assessment of the compound's performance was carried out by rating the disease severity (0-100% scale) on treated plants 3, 7, 10 and 15 days after application. Efficacy (% control) of the compounds was calculated by comparing the disease rating in the treatment with the one of the untreated control. The sprayed plants were also assessed for plant compatibility by recording symptoms like necrosis, chlorosis and stunting.

Structure (SMILES) | inhibition of growth at 300 ppm (Pyricularia oryzae) [%] | inhibition of growth at 300 ppm (Alternaria solani) [%] | inhibition of growth at 300 ppm (Colletotrichum capsici) [%] | pest or weed control at 500 ppm (Phakopsora pachyrhizi) [%]
O=C(C[S+]([O-])Cc1ccccc1)c1ccc(-c2noc(C(F)(F)F)n2)cc1 (centres unmarked) [Compound 80, 2-(benzylsulfinyl)-1-(4-(5-(trifluoromethyl)-1,2,4-oxadiazol-3-yl)phenyl)ethan-1-one] | ≥ 70 | ≥ 70 |  | 
O=C(CSc1ncn[nH]1)c1ccc(-c2noc(C(F)(F)F)n2)cc1 [Compound 149, 2-((1H-1,2,4-triazol-5-yl)thio)-1-(4-(5-(trifluoromethyl)-1,2,4-oxadiazol-3-yl)phenyl)ethan-1-one] | ≥ 70 | ≥ 70 | ≥ 70 | 
C=CCSCC(=O)c1ccc(-c2noc(C(F)(F)F)n2)cc1 [Compound 61, 2-(allylthio)-1-(4-(5-(trifluoromethyl)-1,2,4-oxadiazol-3-yl)phenyl)ethan-1-one] |  | ≥ 70 |  | 
O=C(CSc1ccncc1)c1ccc(-c2noc(C(F)(F)F)n2)cc1 [Compound 68, 2-(pyridin-4-ylthio)-1-(4-(5-(trifluoromethyl)-1,2,4-oxadiazol-3-yl)phenyl)ethan-1-one] |  | ≥ 70 |  | 
O=C(C[S+]([O-])C1CCCC1)c1ccc(-c2noc(C(F)(F)F)n2)cn1 (centres unmarked) [Compound 133, 2-(cyclopentylsulfinyl)-1-(5-(5-(trifluoromethyl)-1,2,4-oxadiazol-3-yl)pyridin-2-yl)ethan-1-one] | ≥ 70 | ≥ 70 |  | 
COc1ccc(NCC(=O)c2ccc(-c3noc(C(F)(F)F)n3)cc2)cc1 [Compound 145, 2-((4-methoxyphenyl)amino)-1-(4-(5-(trifluoromethyl)-1,2,4-oxadiazol-3-yl)phenyl)ethan-1-one] | ≥ 70 |  | ≥ 70 | 
Cc1ccccc1SCC(=O)c1ccc(-c2noc(C(F)(F)F)n2)cc1 [Compound 66, 2-(o-tolylthio)-1-(4-(5-(trifluoromethyl)-1,2,4-oxadiazol-3-yl)phenyl)ethan-1-one] | ≥ 70 |  |  | ≥ 70
O=C(COc1ccc(F)cc1F)c1ccc(-c2noc(C(F)(F)F)n2)cc1 [Compound 18, 2-(2,4-difluorophenoxy)-1-(4-(5-(trifluoromethyl)-1,2,4-oxadiazol-3-yl)phenyl)ethan-1-one] |  | ≥ 70 |  | ≥ 70
O=C(C[S+]([O-])c1c(Cl)cccc1Cl)c1ccc(-c2noc(C(F)(F)F)n2)cn1 (centres unmarked) [Compound 132, 2-((2,6-dichlorophenyl)sulfinyl)-1-(5-(5-(trifluoromethyl)-1,2,4-oxadiazol-3-yl)pyridin-2-yl)ethan-1-one] |  | ≥ 70 |  | 
Cc1ccc(Cl)cc1OCC(=O)c1ccc(-c2noc(C(F)(F)F)n2)cc1 [Compound 17, 2-(5-chloro-2-methylphenoxy)-1-(4-(5-(trifluoromethyl)-1,2,4-oxadiazol-3-yl)phenyl)ethan-1-one] |  | ≥ 70 |  | ≥ 70
O=C(COc1ccc(Br)nc1)c1ccc(-c2noc(C(F)(F)F)n2)cc1 [Compound 49, 2-((6-bromopyridin-3-yl)oxy)-1-(4-(5-(trifluoromethyl)-1,2,4-oxadiazol-3-yl)phenyl)ethan-1-one] | ≥ 70 |  |  | ≥ 70
Cc1cnc([S+]([O-])CC(=O)c2ccc(-c3noc(C(F)(F)F)n3)cc2)s1 (centres unmarked) [Compound 83, 2-((5-methylthiazol-2-yl)sulfinyl)-1-(4-(5-(trifluoromethyl)-1,2,4-oxadiazol-3-yl)phenyl)ethan-1-one] | ≥ 70 |  |  | ≥ 70
O=C(CSc1nccs1)c1ccc(-c2noc(C(F)(F)F)n2)cc1 [Compound 73, 2-(thiazol-2-ylthio)-1-(4-(5-(trifluoromethyl)-1,2,4-oxadiazol-3-yl)phenyl)ethan-1-one] | ≥ 70 |  |  | 
CC(C)(C)[S+]([O-])CC(=O)c1ccc(-c2noc(C(F)(F)F)n2)cc1 (centres unmarked) [Compound 91, 2-(tert-butylsulfinyl)-1-(4-(5-(trifluoromethyl)-1,2,4-oxadiazol-3-yl)phenyl)ethan-1-one] | ≥ 70 | ≥ 70 |  | 
O=C(C[S+]([O-])c1cccc(F)c1)c1ccc(-c2noc(C(F)(F)F)n2)cn1 (centres unmarked) [Compound 128, 2-((3-fluorophenyl)sulfinyl)-1-(5-(5-(trifluoromethyl)-1,2,4-oxadiazol-3-yl)pyridin-2-yl)ethan-1-one] | ≥ 70 | ≥ 70 |  | 
CC(C)SCC(=O)c1ccc(-c2noc(C(F)(F)F)n2)cc1 [Compound 69, 2-(isopropylthio)-1-(4-(5-(trifluoromethyl)-1,2,4-oxadiazol-3-yl)phenyl)ethan-1-one] | ≥ 70 | ≥ 70 |  | 

Structure (SMILES) | inhibition of growth at 300 ppm (Pyricularia oryzae) [%] | inhibition of growth at 300 ppm (Alternaria solani) [%] | inhibition of growth at 300 ppm (Colletotrichum capsici) [%] | pest or weed control at 500 ppm (Phakopsora pachyrhizi) [%]
CN1CCN(CC(=O)c2ccc(-c3noc(C(F)(F)F)n3)cc2)CC1 [Compound 135, 2-(4-methylpiperazin-1-yl)-1-(4-(5-(trifluoromethyl)-1,2,4-oxadiazol-3-yl)phenyl)ethan-1-one] |  | ≥ 70 | ≥ 70 | ≥ 70
O=C(CSCc1ccccc1)c1ccc(-c2noc(C(F)(F)F)n2)cn1 [Compound 118, 2-(benzylthio)-1-(5-(5-(trifluoromethyl)-1,2,4-oxadiazol-3-yl)pyridin-2-yl)ethan-1-one] | ≥ 70 |  |  | 
Cc1nnc(SCC(=O)c2ccc(-c3noc(C(F)(F)F)n3)cc2)o1 [Compound 150, 2-((5-methyl-1,3,4-oxadiazol-2-yl)thio)-1-(4-(5-(trifluoromethyl)-1,2,4-oxadiazol-3-yl)phenyl)ethan-1-one] | ≥ 70 | ≥ 70 |  | 
O=C(CNc1cccc(C(F)(F)F)c1)c1ccc(-c2noc(C(F)(F)F)n2)cc1 [Compound 141, 1-(4-(5-(trifluoromethyl)-1,2,4-oxadiazol-3-yl)phenyl)-2-((3-(trifluoromethyl)phenyl)amino)ethan-1-one] |  |  | ≥ 70 | 
CC(C)S(=O)(=O)CC(=O)c1ccc(-c2noc(C(F)(F)F)n2)cc1 [Compound 106, 2-(isopropylsulfonyl)-1-(4-(5-(trifluoromethyl)-1,2,4-oxadiazol-3-yl)phenyl)ethan-1-one] | ≥ 70 |  |  | 
O=C(COc1cc(Cl)cc(Cl)c1)c1ccc(-c2noc(C(F)(F)F)n2)cc1 [Compound 15, 2-(3,5-dichlorophenoxy)-1-(4-(5-(trifluoromethyl)-1,2,4-oxadiazol-3-yl)phenyl)ethan-1-one] |  |  | ≥ 70 | ≥ 70
Cc1ccccc1NCC(=O)c1ccc(-c2noc(C(F)(F)F)n2)cc1 [Compound 146, 2-(o-tolylamino)-1-(4-(5-(trifluoromethyl)-1,2,4-oxadiazol-3-yl)phenyl)ethan-1-one] |  |  | ≥ 70 | 
O=C(CSC1CCCC1)c1ccc(-c2noc(C(F)(F)F)n2)cn1 [Compound 119, 2-(cyclopentylthio)-1-(5-(5-(trifluoromethyl)-1,2,4-oxadiazol-3-yl)pyridin-2-yl)ethan-1-one] | ≥ 70 | ≥ 70 |  | 
COc1ccc([S+]([O-])CC(=O)c2ccc(-c3noc(C(F)(F)F)n3)cn2)cc1 (centres unmarked) [Compound 129, 2-((4-methoxyphenyl)sulfinyl)-1-(5-(5-(trifluoromethyl)-1,2,4-oxadiazol-3-yl)pyridin-2-yl)ethan-1-one] |  |  | ≥ 70 | 
Cc1cccc(NCC(=O)c2ccc(-c3noc(C(F)(F)F)n3)cc2)c1 [Compound 144, 2-(m-tolylamino)-1-(4-(5-(trifluoromethyl)-1,2,4-oxadiazol-3-yl)phenyl)ethan-1-one] |  |  | ≥ 70 | 
Cc1ccccc1OCC(=O)c1ccc(-c2noc(C(F)(F)F)n2)cc1 [Compound 39, 2-(o-tolyloxy)-1-(4-(5-(trifluoromethyl)-1,2,4-oxadiazol-3-yl)phenyl)ethan-1-one] |  | ≥ 70 |  | 
O=C(COc1cccnc1)c1ccc(-c2noc(C(F)(F)F)n2)cc1 [Compound 21, 2-(pyridin-3-yloxy)-1-(4-(5-(trifluoromethyl)-1,2,4-oxadiazol-3-yl)phenyl)ethan-1-one] |  | ≥ 70 |  | ≥ 70
O=C(CS(=O)(=O)c1nccs1)c1ccc(-c2noc(C(F)(F)F)n2)cc1 [Compound 107, 2-(thiazol-2-ylsulfonyl)-1-(4-(5-(trifluoromethyl)-1,2,4-oxadiazol-3-yl)phenyl)ethan-1-one] |  |  | ≥ 70 | 
O=C(CS(=O)(=O)c1ccncc1)c1ccc(-c2noc(C(F)(F)F)n2)cc1 [Compound 112, 2-(pyridin-4-ylsulfonyl)-1-(4-(5-(trifluoromethyl)-1,2,4-oxadiazol-3-yl)phenyl)ethan-1-one] | ≥ 70 | ≥ 70 |  | 
O=C(CNc1ccc(F)c(F)c1)c1ccc(-c2noc(C(F)(F)F)n2)cc1 [Compound 27, 2-((3,4-difluorophenyl)amino)-1-(4-(5-(trifluoromethyl)-1,2,4-oxadiazol-3-yl)phenyl)ethan-1-one] |  | ≥ 70 |  | ≥ 70
Cc1cccc(S(=O)(=O)CC(=O)c2ccc(-c3noc(C(F)(F)F)n3)cc2)c1 [Compound 110, 2-(m-tolylsulfonyl)-1-(4-(5-(trifluoromethyl)-1,2,4-oxadiazol-3-yl)phenyl)ethan-1-one] | ≥ 70 |  |  | 
